Measurements: patent US20050222263A1, “Compositions against stress-related diseases and methods for treating stress-related diseases” (Ajinomoto Co., Inc., priority 2002, published 2005)

Key:
[1] = test system: model for gastric ulcer caused by water immersion under restraint; assay: water-immersion restraint stress gastric ulcer model, intragastric hemorrhage; type: in vivo, Wistar male rats; conditions: in powdered feed; paroxetine 298 mg/kg diet, lysine hydrochloride 13.3 g/kg diet, arginine 13.3 g/kg diet; water-immersion restraint stress 5 hours
Method: A widely used model for gastric ulcer caused by water immersion under restraint was used. That is, rats were placed in a stress cage and immersed in water to the chest for 5 hours (at a temperature of 22-25° C.). The stomach was removed and the degree of intragastric hemorrhage was observed and the hemorrhage area was calculated using an NHI image software.
The test compound was evaluated as follows. Five-week-old Wistar male rats were divided into three groups. The first group was bred with a normal powdered feed; the second group with a powdered feed to which was added a selective serotonin reuptake inhibitor (SSRI) (paroxetine; Glaxo-SmithKline; 298 mg/kg diet) alone; and the third group with a powdered feed containing the same amount of the same SSRI and lysine hydrochloride (13.3 g/kg diet) to which was additionally added arginine (13.3 g/kg diet). Each group consisted of 10 animals. Rats could freely feed before they reached 14 weeks of age. Thereafter, no feed and water were given for 2 days, and on day 3, all of the rats were subjected to the water-immersion restraint stress for 5 hours.

[2] = test system: animal model of irritable bowel syndrome (wrap-restraint stress); assay: wrap-restraint stress irritable bowel syndrome model, amount of feces excreted; type: in vivo, Wistar male rats; conditions: oral, 40 minutes before wrap-restraint stress; lysine hydrochloride 1 g/kg, alprazolam 10 mg/kg; vs control
Method: An animal model of irritable bowel syndrome was prepared according to the method as described by Williams et al. (Williams, C. L., Villar, R. G., Peterson, J. M., Burks, T. F., “Stress-induced changes in intestinal transit in the rat: a model for irritable bowel syndrome,” Gastroenterol., vol. 94, pp. 611-621 (1988)). That is, a cotton tape was placed around the anterior limbs of seven-week-old Wistar male rats, the rats were kept in a bracket cage, and then the amount of feces excreted during 2 hours was measured. A test compound was orally administered 40 minutes before starting the wrap-restraint stress. The following groups were examined: 1) control group; 2) a group to which lysine hydrochloride (1 g/kg) alone was given; 3) a group to which a minor tranquilizer alprazolam (10 mg/kg; Takeda Chem. Ind.) alone was given; and 4) a combination group to which lysine hydrochloride (1 g/kg) and alprazolam (10 mg/kg) were given. Each group consisted of 10 animals.

SMILES | intragastric hemorrhage (hemorrhage area) [1] | effect on stress-induced increase of amount of feces excreted during 2 hours [2]
Fc1ccc([C@@H]2CCNC[C@H]2COc2ccc3c(c2)OCO3)cc1 [SSRI, paroxetine] | significantly exacerbated the intragastric hemorrhage | 
Cc1nnc2n1-c1ccc(Cl)cc1C(c1ccccc1)=NC2 [alprazolam] |  | no clear effect was observed
Cl.NCCCC[C@H](N)C(=O)O [lysine hydrochloride] |  | no clear effect was observed
